According to publication PMC5063506, “A Novel Class of Small Molecule Agonists with Preference for Human over Mouse TLR4 Activation” (PLoS ONE, 2016):

Tests used:
mouse TLR4/MD2 = molecular target: T1, mouse TLR4/MD2 (Mus musculus, UniProt Q9JHF9+Q9QUK6); assay: mTLR4/MD2-HEK293 transfectant SEAP (QUANTI-Blue) dose response, AUC; format: cell-based; conditions: 1 μg/ml to 4 ng/ml, 24 h, SEAP OD 650 nm vs log concentration
T1 construct: host or cells: HEK293
T1 sequence (Q9QUK6 26-835): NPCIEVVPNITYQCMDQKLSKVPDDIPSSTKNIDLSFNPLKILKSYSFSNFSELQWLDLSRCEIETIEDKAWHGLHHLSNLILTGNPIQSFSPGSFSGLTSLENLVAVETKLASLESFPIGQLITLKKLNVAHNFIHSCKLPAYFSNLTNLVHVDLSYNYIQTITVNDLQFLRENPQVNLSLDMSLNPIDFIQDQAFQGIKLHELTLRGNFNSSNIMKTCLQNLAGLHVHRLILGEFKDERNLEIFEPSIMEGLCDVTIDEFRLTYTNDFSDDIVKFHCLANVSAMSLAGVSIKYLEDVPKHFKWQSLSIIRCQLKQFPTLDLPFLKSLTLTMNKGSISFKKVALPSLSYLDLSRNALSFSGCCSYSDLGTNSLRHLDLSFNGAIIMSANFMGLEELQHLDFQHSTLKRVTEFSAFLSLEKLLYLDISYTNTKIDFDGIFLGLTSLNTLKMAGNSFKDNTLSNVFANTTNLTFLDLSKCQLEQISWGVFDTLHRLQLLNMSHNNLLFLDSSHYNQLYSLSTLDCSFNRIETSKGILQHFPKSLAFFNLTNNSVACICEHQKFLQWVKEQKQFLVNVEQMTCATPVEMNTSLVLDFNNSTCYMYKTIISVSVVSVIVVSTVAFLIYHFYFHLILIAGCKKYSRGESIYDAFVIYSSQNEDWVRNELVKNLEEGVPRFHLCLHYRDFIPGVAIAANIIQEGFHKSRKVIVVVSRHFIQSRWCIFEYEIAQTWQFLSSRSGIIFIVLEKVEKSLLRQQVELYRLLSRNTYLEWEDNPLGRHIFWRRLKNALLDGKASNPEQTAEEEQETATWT
T1 sequence (Q9JHF9 19-160): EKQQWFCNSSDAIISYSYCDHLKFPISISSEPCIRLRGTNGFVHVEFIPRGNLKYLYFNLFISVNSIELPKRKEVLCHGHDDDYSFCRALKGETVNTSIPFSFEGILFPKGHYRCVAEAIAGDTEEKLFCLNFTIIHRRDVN
Method: Cells were seeded in tissue culture treated clear flat bottom polystyrene 96 well plates (Costar, 3598) at 1e4 cells/well. Concentration-response curves were generated by addition of test compounds and incubation for 20 h at 37°C in an atmosphere of 5% CO2. LPS (E. coli 0111:B4, Ultra-pure, Invivogen) or PHAD (Avanti Polar Lipids) was used as a positive control. The SEAP released was quantified using p nitrophenyl phosphate as a substrate, and the absorbance at 405 nm was measured at 30 second intervals over several minutes using a microplate reader. Some data are recorded as the pEC50, the negative log of the EC50 value. Other data generated from these reporter cell lines were converted to AUC (area under the curve) values by interpolation of fitted cubic spline curve between OD value and log concentration levels. The calculation is performed using MESS package in statistical software R (www.r-project.org/).
Fig 4 Ugi compounds preferentially activate TLR4-HEK transfectants expressing human MD2. A-B) HEK293 cells transfected with human TLR4/MD2 or mouse TLR4/MD2 (InVivogen) were stimulated with TLR4 agonists including MPL, PHAD, and Ugi compounds at 1 μg/ml to 4 ng/ml and with LPS at 25 ng/ml to 64 pg/ml for 24 h. SNs were analyzed for SEAP content by the QUANTI-Blue assay (InVivogen) and analysis at 650 nm by spectrophotometer. AUC (area under the curve) values were calculated as in Methods. No AUC value was calculated for LPS since it was utilized with a different dose range. C) HEK transfectants with cis- or trans-species expression of TLR4, MD2, and CD14 were stimulated with Ugi compounds in a dose response range of 9 μM to 1 nM or with LPS (boxes) at 75 ng/ml to 5 pg/ml for 48 h. Data was obtained as Vmax calculated over the initial linear portion of the kinetic absorbance measurements. The AUC (area under the curve) value for the dose response curve of Vmax vs log10 (molar units) was calculated for each compound using Trapezoidal rule. TEXT PRINTED IN THE PICTURE: (A) MPL: hTLR4-HEK AUC: 0.55 | (A) AZ617: hTLR4-HEK AUC: 5.90 | (A) AZ618: hTLR4-HEK AUC: 6.56 | (A) AZ839: hTLR4-HEK AUC: 6.00 | (A) AZ161: hTLR4-HEK AUC: 5.54 | (A) AZ902: hTLR4-HEK AUC: 7.04 | (A) GLA: hTLR4-HEK AUC: 3.75 | (B) MPL: mTLR4-HEK AUC: 13.27 | (B) AZ617: mTLR4-HEK AUC: 0.89 | (B) AZ618: mTLR4-HEK AUC: 1.03 | (B) AZ839: mTLR4-HEK AUC: 0.93 | (B) AZ161: mTLR4-HEK AUC: 0.99 | (B) AZ902: mTLR4-HEK AUC: 1.55 | (B) GLA: mTLR4-HEK AUC: 14.24

[1] = LogD, octanol/water distribution coefficient; format: physicochemical; conditions: pH 7.4; octanol/water distribution coefficient at pH7.4
Excerpt: Fig 2 Optimization stages of Ugi products as TLR4 agonists. *Human TLR-4 NFκB SEAP reporter assays; protocol as described in Methods. Data are reported as pEC50, or negative log of the EC50 values. **Clint rh / hm represents intrinsic clearance in presence of rat hepatocytes (μL/min/10^6 cells) and human microsomes (μL/min/mg protein). […] Thus a drug molecule with LogD >4 might be considered to be very lipophilic and therefore more likely to suffer from rapid metabolic turnover, poor solubility and receptor promiscuity; whereas a LogD range of 1–3 is more likely to be associated with optimal physicochemical and drug-like properties. ^††Solubility was measured by dissolution of solid samples in buffer at pH 7.4.

mTLR4-HEK AUC (mouse TLR4/MD2)	logD [1]	SMILES
1.03	–	Cc1cc(C)cc(N(C(=O)c2cc(-c3ccccc3)n(-c3ccccc3)n2)C(C(=O)NC2CCCC2)c2ccc(CC(=O)O)cc2)c1 (stereo not shown) [AZ618, 2-(4-(2-(cyclopentylamino)-1-(N-(3,5-dimethylphenyl)-1,5-diphenyl-1H-pyrazole-3-carboxamido)-2-oxoethyl)phenyl)acetic acid]
0.89	2.85	O=C(O)Cc1ccc(C(C(=O)NC2CCCC2)N(C(=O)c2cc(-c3ccccc3)n(-c3ccccc3)n2)c2ccc3c(c2)CCC3)cc1 (stereo not shown) [AZ617]
0.99	3.2	Cc1ccc(N(C(=O)c2cc(-c3ccccc3)n(-c3ccccc3)n2)C(C(=O)NC2CCCC2)c2ccc(CC(=O)O)cc2)cc1Cl (stereo not shown) [AZ161]
1.55	> 4.5	CC(C)(C)c1ccc(N(C(=O)c2cc(-c3ccccc3)n(-c3ccccc3)n2)C(C(=O)NC2CCCC2)c2ccc(CC(=O)O)cc2)cc1 (stereo not shown) [AZ902]
